According to patent US20170334899A1, “AMINO-SUBSTITUTED ISOTHIAZOLES” (Bayer Pharma Aktiengesellschaft, priority 2014, published 2017):
Where “and” joins values, the source holds several entries; their conditions need not be identical. Equal entries are not always repeated.

Molecular target: T1, human kinase Mps-1 (Homo sapiens, UniProt P33981)
T1 construct: N-terminally GST-tagged human full length recombinant Mps-1 kinase; GST (N); purchased Invitrogen, Karslruhe, Germany PV4071
T1 sequence (P33981 1-857): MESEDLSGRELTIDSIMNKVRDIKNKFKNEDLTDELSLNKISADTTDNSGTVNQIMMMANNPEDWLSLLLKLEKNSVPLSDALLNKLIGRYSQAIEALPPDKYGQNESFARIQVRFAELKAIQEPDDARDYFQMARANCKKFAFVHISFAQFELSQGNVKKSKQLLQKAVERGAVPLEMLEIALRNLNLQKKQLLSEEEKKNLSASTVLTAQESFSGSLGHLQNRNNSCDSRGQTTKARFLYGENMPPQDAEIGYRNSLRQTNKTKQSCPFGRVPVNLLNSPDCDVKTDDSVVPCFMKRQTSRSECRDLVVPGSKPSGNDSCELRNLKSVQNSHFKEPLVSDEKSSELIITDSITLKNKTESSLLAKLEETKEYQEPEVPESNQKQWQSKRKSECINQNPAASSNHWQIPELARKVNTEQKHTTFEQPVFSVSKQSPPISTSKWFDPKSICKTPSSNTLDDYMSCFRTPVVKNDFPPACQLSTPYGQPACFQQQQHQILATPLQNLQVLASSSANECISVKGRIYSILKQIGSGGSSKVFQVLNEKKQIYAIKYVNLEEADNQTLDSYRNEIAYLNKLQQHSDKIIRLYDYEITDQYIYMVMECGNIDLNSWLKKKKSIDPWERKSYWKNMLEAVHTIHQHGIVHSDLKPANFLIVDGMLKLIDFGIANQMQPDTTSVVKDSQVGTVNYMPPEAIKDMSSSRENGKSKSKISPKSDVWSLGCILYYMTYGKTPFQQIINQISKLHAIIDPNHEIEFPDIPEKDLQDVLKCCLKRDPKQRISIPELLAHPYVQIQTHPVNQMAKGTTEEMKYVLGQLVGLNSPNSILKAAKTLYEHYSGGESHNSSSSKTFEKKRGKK
Assay: Mps-1 kinase assay (TR-FRET)
Format: biochemical
Conditions: Mps-1 TR-FRET kinase assay; avg; read-out: Mps1 avg (IC50 [mol/l])
Procedure, shortened: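 Inhibition normalised between uninhibited reaction (0%) and enzyme-free wells (100%), using the blank-corrected TR-FRET 665/620 nm ratio after EDTA stop. Reaction: ~0.5 nM GST-Mps-1 full length, 10 μM ATP, 1 μM biotin-peptide, 60 min at 22 °C, after 15 min compound pre-binding, pH 7.7.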

IC50, 17 µM:
Cc1nsc(Nc2cncc(C(F)(F)F)n2)c1C(=O)Nc1ccc(F)c(C(N)=O)c1 [Example 204, N-(3-carbamoyl-4-fluorophenyl)-3-methyl-5-{[6-(trifluoromethyl)pyrazin-2-yl]amino}-1,2-thiazole-4-carboxamide]

IC50, > 20 µM:
Cc1nsc(Nc2cncc(C(F)(F)F)n2)c1C(=O)Nc1ccc(OCCNC(=O)OC(C)(C)C)c(F)c1 [Example 216, tert-butyl [2-(2-fluoro-4-{[(3-methyl-5-{[6-(trifluoromethyl)pyrazin-2-yl]amino}-1,2-thiazol-4-yl)carbonyl]amino}phenoxy)ethyl]carbamate]
Cc1nsc(Nc2cnc3ccccc3n2)c1C(=O)Nc1ccc(Oc2cccnc2)nc1 [Example 231, 3-methyl-N-[6-(pyridin-3-yloxy)pyridin-3-yl]-5-(quinoxalin-2-ylamino)-1,2-thiazole-4-carboxamide]
Cc1nsc(Nc2cc(C#N)ccn2)c1C(=O)Nc1ccc(Oc2cccc(C(F)(F)F)c2)nc1 [Example 230, 5-[(4-cyanopyridin-2-yl)amino]-3-methyl-N-{6-[3-(trifluoromethyl)phenoxy]pyridin-3-yl}-1,2-thiazole-4-carboxamide]
CNC(=O)c1ccc(NC(=O)c2c(C)nsc2Nc2cnc3ccccc3n2)cc1F [Example 207, N-[3-fluoro-4-(methylcarbamoyl)phenyl]-3-methyl-5-(quinoxalin-2-ylamino)-1,2-thiazole-4-carboxamide]
Cc1nsc(Nc2cnc3ccccc3n2)c1C(=O)Nc1ccc(Oc2ccc(SC(F)(F)F)cc2)nc1 [Example 233, 3-methyl-5-(quinoxalin-2-ylamino)-N-(6-{4-[(trifluoromethyl)sulfanyl]phenoxy}pyridin-3-yl)-1,2-thiazole-4-carboxamide]
Cc1nsc(Nc2ccc(C#N)cn2)c1C(=O)Nc1ccc(F)c(C(N)=O)c1 [Example 203, N-(3-carbamoyl-4-fluorophenyl)-5-[(5-cyanopyridin-2-yl)amino]-3-methyl-1,2-thiazole-4-carboxamide]
Cc1nsc(Nc2cncc(C(F)(F)F)n2)c1C(=O)Nc1ccc(C(=O)OC(C)(C)C)cc1 [Example 193, tert-butyl tert-butyl 4-{[(3-methyl-5-{[6-(trifluoromethyl)pyrazin-2-yl]amino}-1,2-thiazol-4-yl)carbonyl]amino}benzoate]
Cc1nsc(Nc2ccc(C#N)cn2)c1C(=O)Nc1cccc(N)c1 [Example 180, N-(3-aminophenyl)-5-[(5-cyanopyridin-2-yl)amino]-3-methyl-1,2-thiazole-4-carboxamide]
Cc1nsc(Nc2cc(C#N)ccn2)c1C(=O)Nc1cccc(C(=O)NC2CC2)c1 [Example 175, 5-[(4-cyanopyridin-2-yl)amino]-N-[3-(cyclopropylcarbamoyl)phenyl]-3-methyl-1,2-thiazole-4-carboxamide]
Cc1nsc(Nc2cnc3ccccc3n2)c1C(=O)Nc1cccc(NC(=O)OC(C)(C)C)c1 [Example 178, tert-butyl [3-({[3-methyl-5-(quinoxalin-2-ylamino)-1,2-thiazol-4-yl]carbonyl}amino)-phenyl]carbamate]
Cc1nsc(Nc2cnc3ccccc3n2)c1C(=O)Nc1ccc(C(N)=O)c(F)c1 [Example 201, N-(4-carbamoyl-3-fluorophenyl)-3-methyl-5-(quinoxalin-2-ylamino)-1,2-thiazole-4-carboxamide]
Cc1nsc(Nc2cnc3ccccc3n2)c1C(=O)Nc1ccccc1S(C)(=O)=O [Example 188, 3-methyl-N-[2-(methylsulfonyl)phenyl]-5-(quinoxalin-2-ylamino)-1,2-thiazole-4-carboxamide]
Cc1nsc(Nc2ccc(C#N)cn2)c1C(=O)Nc1cccc(C(=O)OC(C)(C)C)c1 [Example 240, tert-butyl 3-[({5-[(5-cyanopyridin-2-yl)amino]-3-methyl-1,2-thiazol-4-yl}carbonyl)amino]benzoate]
Cc1nsc(Nc2cncc(C(F)(F)F)n2)c1C(=O)Nc1ccc(C(=O)NCCN2CCCC(F)(F)C2)cc1 [Example 214, N-(4-{[2-(3,3-difluoropiperidin-1-yl)ethyl]carbamoyl}phenyl)-3-methyl-5-{[6-(trifluoromethyl)pyrazin-2-yl]amino}-1,2-thiazole-4-carboxamide]
Cc1nsc(Nc2cnc(C(F)(F)F)cn2)c1C(=O)Nc1ccc(OC2CCN(C)CC2)nc1 [Example 220, 3-methyl-N-{6-[(1-methylpiperidin-4-yl)oxy]pyridin-3-yl}-5-{[5-(trifluoromethyl)pyrazin-2-yl]amino}-1,2-thiazole-4-carboxamide]
Cc1nsc(Nc2cncc(C(F)(F)F)n2)c1C(=O)Nc1ccc(OC2CCN(C)CC2)nc1 [Example 219, 3-methyl-N-{6-[(1-methylpiperidin-4-yl)oxy]pyridin-3-yl}-5-{[6-(trifluoromethyl)pyrazin-2-yl]amino}-1,2-thiazole-4-carboxamide]
Cc1nsc(Nc2cnc(C(F)(F)F)cn2)c1C(=O)Nc1ccc(OCCNC(=O)OC(C)(C)C)nc1 [Example 192, tert-butyl {2-[(5-{[(3-methyl-5-{[5-(trifluoromethyl)pyrazin-2-yl]amino}-1,2-thiazol-4-yl)carbonyl]amino}pyridin-2-yl)oxy]ethyl}carbamate]
Cc1nsc(Nc2cnc(C(F)(F)F)cn2)c1C(=O)Nc1ccc(F)c(OC2CCN(C(=O)OC(C)(C)C)CC2)c1 [Example 229, tert-butyl 4-(2-fluoro-5-{[(3-methyl-5-{[5-(trifluoromethyl)pyrazin-2-yl]amino}-1,2-thiazol-4-yl)carbonyl]amino}phenoxy)piperidine-1-carboxylate]

IC50, ≥ 20 µM:
Cc1nsc(Nc2cncc(C(F)(F)F)n2)c1C(=O)Nc1ccc(OC2CCNCC2)nc1 [Example 13, 3-Methyl-N-[6-(piperidin-4-yloxy)pyridin-3-yl]-5-{[6-(trifluoromethyl)pyrazin-2-yl]-amino}-1,2-thiazole-4-carboxamide]
Cc1nsc(Nc2cncc(C(F)(F)F)n2)c1C(=O)Nc1ccc(OC2CCN(CC(F)(F)F)CC2)nc1 [Example 16, 3-Methyl-N-(6-{[1-(2,2,2-trifluoroethyl)piperidin-4-yl]oxy}pyridin-3-yl)-5-{[6-(trifluoromethyl)pyrazin-2-yl]amino}-1,2-thiazole-4-carboxamide]
Cc1nsc(Nc2cncc(C(F)(F)F)n2)c1C(=O)Nc1ccc(OC2CCN(CCF)CC2)nc1 [Example 14, N-(6-{[1-(2-Fluoroethyl)piperidin-4-yl]oxy}pyridin-3-yl)-3-methyl-5-{[6-(trifluoro-methyl)pyrazin-2-yl]amino}-1,2-thiazole-4-carboxamide]

IC50, > 20 µM and 14 µM:
Cc1nsc(Nc2cnc3ccccc3n2)c1C(=O)Nc1ccc(NCCC(=O)OC(C)(C)C)nc1 [Example 236, tert-butyl N-[5-({[3-methyl-5-(quinoxalin-2-ylamino)-1,2-thiazol-4-yl]carbonyl}amino)pyridin-2-yl]-beta-alaninate]

IC50, 12 µM:
COc1ccc(NC(=O)c2c(C)nsc2Nc2cnc3ccccc3n2)c(CC#N)n1 [Example 235, N-[2-(cyanomethyl)-6-methoxypyridin-3-yl]-3-methyl-5-(quinoxalin-2-ylamino)-1,2-thiazole-4-carboxamide]
